The values that follow are results of earlier work, collected in patent US10285382B2 (priority 2017, dated 2019).

Some test systems named below: Salmonella; shell surface bacteria; broiler eggs.
Details in all cases: cited from earlier work
Setting [1] is: dipping eggs in 6% H2O2 solution twice, Padron (1995).

SMILES strings stand for the structures. Like-named read-outs stand apart in the source and are kept apart here.

As for `OO` [H2O2, hydrogen peroxide], in the data set with Salmonella ([…] solution applied with a vacuum and a surfactant, Cox et al.), the “treated eggs remaining contaminated” value was 30%. In addition, in the data set on Salmonella (setting [1]), the “reduction of the number of Salmonella in eggshell membranes” value is 95% and the “reduction of the numbers of positive eggs” value is recorded as 55%. Further, the “log reduction in bacterial counts (cfu/egg)” value with shell surface bacteria (3% solution combined with ultraviolet light, Wells et al. (2010)) is given as at most 3 log. Besides, in the data set with shell surface bacteria (Sheldon and Brake (1991)), the “H2O2 concentration required to disinfect shell surfaces” value is listed as 5 % (vol/vol). The effect on hatchability result in the data set on broiler eggs (broiler eggs, […] fogged, Bailey et al. (1996)) is “did not significantly reduce, or improve”. Moreover, in the data set with broiler eggs (in vivo), the effect on hatchability result was “no adverse effect”.
